According to patent US20050148671A1, “(2S)-amino(phenyl)acetic acid and derivatives as alpha2delta voltage-gated calcium channel ligands” (priority 2004, published 2005):

Test system: mechanical allodynia in spinal nerve ligated rats
Assay: Determination of analgesic effect: mechanical allodynia (von Frey) after L5/L6 spinal nerve ligation
Details: oral, in PEG400, 60 minutes before von Frey testing; percentage of maximal protective effect relative to vehicle; male Sprague Dawley rats
From the text: Male Sprague Dawley rats (80-100 g) were purchased from Charles River (Portage, Mich.). Prior to surgery, animals were group-housed and maintained in a temperature regulated environment (lights on between 7:00 a.m. and 8:00 p.m.). Following nerve ligation surgery, animals were group housed. Two weeks after surgery, experimentation began. Rats had access to food and water ad libitum.
Briefly, an incision was made on the dorsal portion of the hip and the muscle was blunt dissected to reveal the spinal processes. The L6 transverse process was removed, and the left L5 and L6 spinal nerves were tightly ligated with a 5.0 braided silk suture. The wound was cleaned, the membrane sewn with a 4.0 dissolvable Vicryl suture and the skin closed with wound clips.
For the assessment of neuropathic pain, mechanical allodynia in the affected paw of animals that had undergone spinal nerve ligation was evaluated using von Frey filaments. […] Using the Dixons Up-Down method, a baseline level of allodynia was determined to have a withdrawal threshold of 3 g of pressure.
Rats were placed in groups labeled A-D with six rats per group. Group A was administered 1.0 mL/kg of vehicle (100% PEG400). […] Data are expressed as the percentage of maximal protective effect relative to the control (vehicle treated) animals.

SMILES | EC50 [µmol/kg]
N[C@H](C(=O)O)c1ccccc1 [(2S)-amino(phenyl)acetic acid] | 50
NCC1(CC(=O)O)CCCCC1 [Gabapentin] | 160
